How the values were obtained:
[1] = biological target: JAK1 (Homo sapiens (Human), UniProt P23458); assay: Jak Biochemical HTRF Assay, JAK1; settings: HTRF biochemical assay, GST-tagged catalytic domain; top concentration tested […]; read-out: JAK1 IC50
Source text: (§1) Jak Biochemical HTRF Assay Protocol
(§2) Subsequent reagent additions employed an Agilent Bravo.

[2] = biological target: JAK2 (Homo sapiens (Human), UniProt O60674); assay: Jak Biochemical HTRF Assay, JAK2; settings: HTRF biochemical assay, GST-tagged catalytic domain; top concentration tested […]
Chain of JAK2 (O60674 849-1124): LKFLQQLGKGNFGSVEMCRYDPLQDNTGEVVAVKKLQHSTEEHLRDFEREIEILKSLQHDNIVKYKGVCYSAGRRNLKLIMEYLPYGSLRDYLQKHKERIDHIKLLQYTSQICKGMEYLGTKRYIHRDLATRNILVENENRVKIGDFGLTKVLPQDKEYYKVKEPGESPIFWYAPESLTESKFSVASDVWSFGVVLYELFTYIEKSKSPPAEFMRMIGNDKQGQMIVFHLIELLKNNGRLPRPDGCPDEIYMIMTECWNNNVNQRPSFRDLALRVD
Source text: as §1, §2

Chain of JAK1 (P23458 875-1153): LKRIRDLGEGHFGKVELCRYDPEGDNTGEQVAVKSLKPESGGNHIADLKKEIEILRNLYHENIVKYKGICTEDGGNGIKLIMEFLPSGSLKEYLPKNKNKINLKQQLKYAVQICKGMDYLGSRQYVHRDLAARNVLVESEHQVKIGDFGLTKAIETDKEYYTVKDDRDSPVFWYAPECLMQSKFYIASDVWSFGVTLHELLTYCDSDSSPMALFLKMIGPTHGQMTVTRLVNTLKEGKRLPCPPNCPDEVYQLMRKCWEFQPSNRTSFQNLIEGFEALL

| IC50 [1] | IC50 [2] | Compound |
| --- | --- | --- |
| 0.3 nM | 8 nM | N#CCC1(n2cc(C(N)=O)c(Nc3ccccc3)n2)CCN(C(=O)c2cccs2)CC1 [Example 34-14, 1-[4-(cyanomethyl)-1-(thiophen-2-ylcarbonyl)piperidin-4-yl]-3-(phenylamino)-1H-pyrazole-4-carboxamide] |
| 5 nM | 194 nM | N#CCC1(n2cc(C(N)=O)c(Nc3ccccc3)n2)CCN(C(=O)CN2CCCC2=O)CC1 [Example 34-15, 1-{4-(cyanomethyl)-1-[(2-oxopyrrolidin-1-yl)acetyl]piperidin-4-yl}-3-(phenylamino)-1H-pyrazole-4-carboxamide] |
| 2 nM | 35 nM | N#CCC1(n2cc(C(N)=O)c(Nc3ccccc3)n2)CCN(C(=O)c2ccsc2)CC1 [Example 34-16, 1-[4-(cyanomethyl)-1-(thiophen-3-ylcarbonyl)piperidin-4-yl]-3-(phenylamino)-1H-pyrazole-4-carboxamide] |
| 10 nM | 158 nM | N#CCC1(n2cc(C(N)=O)c(Nc3ccccc3)n2)CCN(C(=O)/C=C/c2cccnc2)CC1 [Example 34-17, 1-{4-(cyanomethyl)-1-[(2E)-3-pyridin-3-ylprop-2-enoyl]piperidin-4-yl}-3-(phenylamino)-1H-pyrazole-4-carboxamide] |
| 8 nM | 137 nM | COc1ccc(C(=O)N2CCC(CC#N)(n3cc(C(N)=O)c(Nc4ccccc4)n3)CC2)cc1 [Example 34-18, 1-{4-(cyanomethyl)-1-[(4-methoxyphenyl)carbonyl]piperidin-4-yl}-3-(phenylamino)-1H-pyrazole-4-carboxamide] |
| 11 nM | 184 nM | N#CCC1(n2cc(C(N)=O)c(Nc3ccccc3)n2)CCN(C(=O)c2ccc(Cl)cc2)CC1 [Example 34-19, 1-{1-[(4-chlorophenyl)carbonyl]-4-(cyanomethyl)piperidin-4-yl}-3-(phenylamino)-1H-pyrazole-4-carboxamide] |
| 13 nM | 115 nM | N#CCC1(n2cc(C(N)=O)c(Nc3ccccc3)n2)CCN(C(=O)c2ccccc2Cl)CC1 [Example 34-20, 1-{1-[(2-chlorophenyl)carbonyl]-4-(cyanomethyl)piperidin-4-yl}-3-(phenylamino)-1H-pyrazole-4-carboxamide] |
| 4 nM | 63 nM | N#CCC1(n2cc(C(N)=O)c(Nc3ccccc3)n2)CCN(C(=O)c2cccc(Cl)c2)CC1 [Example 34-21, l-{l-[(3-chlorophenyl)carbonyl]-4-(cyanomethyl)piperidin-4-yl}-3-(phenylamino)-lH-pyrazole-4-carboxamide] |
| 6 nM | 176 nM | N#CCC1(n2cc(C(N)=O)c(Nc3ccccc3)n2)CCN(C(=O)c2cc3ccccc3[nH]2)CC1 [Example 34-22, 1-[4-(cyanomethyl)-1-(1H-indol-2-ylcarbonyl)piperidin-4-yl]-3-(phenylamino)-1H-pyrazole-4-carboxamide] |
| 14 nM | 230 nM | CN(C)c1ccc(C(=O)N2CCC(CC#N)(n3cc(C(N)=O)c(Nc4ccccc4)n3)CC2)cc1 [Example 34-23, 1-[4-(cyanomethyl)-1-{[4-(dimethylamino)phenyl]carbonyl}piperidin-4-yl]-3-(phenylamino)-lH-pyrazole-4-carboxamide] |
| 7 nM | 84 nM | COc1ccc(CC(=O)N2CCC(CC#N)(n3cc(C(N)=O)c(Nc4ccccc4)n3)CC2)cc1 [Example 34-24, 1-{4-(cyanomethyl)-1-[(4-methoxyphenyl)acetyl]piperidin-4-yl}-3-(phenylamino)-1H-pyrazole-4-carboxamide] |
| 28 nM | 350 nM | N#CCC1(n2cc(C(N)=O)c(Nc3ccccc3)n2)CCN(C(=O)c2cccc3ccccc23)CC1 [Example 34-25, 1-[4-(cyanomethyl)-1-(naphthalene-1-ylcarbonyl)piperidin-4-yl]-3-(phenylamino)-1H-pyrazole-4-carboxamide] |
| 10 nM | 238 nM | Cn1c(C(=O)N2CCC(CC#N)(n3cc(C(N)=O)c(Nc4ccccc4)n3)CC2)cc2ccccc21 [Example 34-26, 1-{4-(cyanomethyl)-1-[(1-methyl-1H-indol-2-yl)carbonyl]piperidin-4-yl}-3-(phenylamino)-1H-pyrazole-4-carboxamide] |
| 32 nM | 448 nM | COc1ccc(C(=O)N2CCC(CC#N)(n3cc(C(N)=O)c(Nc4ccccc4)n3)CC2)cc1OC [Example 34-27, 1-{4-(cyanomethyl)-l-[(3,4-dimethoxyphenyl)carbonyl]piperidin-4-yl}-3-(phenylamino)-1H-pyrazole-4-carboxamide] |
| 92 nM | 1050 nM | N#CCC1(n2cc(C(N)=O)c(Nc3ccccc3)n2)CCN(C(=O)c2cccc(N3CCOCC3)c2)CC1 [Example 34-28, 1-(4-(cyanomethyl)-1-[(3-morpholin-4-ylphenyl)carbonyl]piperidin-4-yl}-3-(phenylamino)-1H-pyrazole-4-carboxamide] |
| 387 nM | 1480 nM | N#CCC1(n2cc(C(N)=O)c(Nc3ccccc3)n2)CCN(C(=O)c2ccccc2-c2ccccc2)CC1 [Example 34-29, 1-[1-(biphenyl-2-ylcarbonyl)-4-(cyanomethyl)piperidin-4-yl]-3-(phenylamino)-1H-pyrazole-4-carboxamide] |
| 35 nM | 363 nM | N#CCC1(n2cc(C(N)=O)c(Nc3ccccc3)n2)CCN(C(=O)Cc2ccc(C(F)(F)F)cc2)CC1 [Example 34-30, 1-[4-(cyanomethyl)-1-{[4-(trifluoromethyl)phenyl]acetyl}piperidin-4-yl]-3-(phenylamino)-1H-pyrazole-4-carboxamide] |
| 61 nM | 704 nM | N#CCC1(n2cc(C(N)=O)c(Nc3ccccc3)n2)CCN(C(=O)c2ccc(N3CCOCC3)cc2)CC1 [Example 34-31, 1-{4-(cyanomethyl)-1-[(4-morpholin-4-ylphenyl)carbonyl]piperidin-4-yl}-3-(phenylamino)-1H-pyrazole-4-carboxamide] |
| 6 nM | 166 nM | N#CCC1(n2cc(C(N)=O)c(Nc3ccccc3)n2)CCN(C(=O)c2ccc3ccccc3n2)CC1 [Example 34-32, 1-[4-(cyanomethyl)-1-(quinolin-2-ylcarbonyl)piperidin-4-yl]-3-(phenylamino)-1H-pyrazole-4-carboxamide] |
| 153 nM | 711 nM | N#CCC1(n2cc(C(N)=O)c(Nc3ccccc3)n2)CCN(C(=O)C(c2ccccc2)c2ccccc2)CC1 [Example 34-33, 1-[4-(cyanomethyl)-1-(diphenylacetyl)piperidin-4-yl]-3-(phenylamino)-1H-pyrazole-4-carboxamide] |
| 60 nM | 830 nM | CN1CCN(c2ccc(C(=O)N3CCC(CC#N)(n4cc(C(N)=O)c(Nc5ccccc5)n4)CC3)cc2)CC1 [Example 34-34, 1-[4-(cyanomethyl)-1-{[4-(4-methylpiperazin-1-yl)phenyl]carbonyl}piperidin-4-yl] 3-(phenylamino)-1H-pyrazole-4-carboxamide] |
| 44 nM | 248 nM | N#CCC1(n2cc(C(N)=O)c(Nc3ccccc3)n2)CCN(C(=O)CO)CC1 [Example 34-35, 1-[4-(cyanomethyl)-1-(hydroxyacetyl)piperidin-4-yl]-3-(phenylamino)-1H-pyrazole-4-carboxamide] |
| 42 nM | 298 nM | CCC(=O)N1CC(CC#N)(n2cc(C(N)=O)c(Nc3ccccc3)n2)C1 [Example 34-36, 1-[3-(cyanomethyl)-1-propanoylazetidin-3-yl]-3-(phenylamino)-1H-pyrazole-4-carboxamide] |
| 138 nM | 570 nM | CC(C)(C)C(=O)N1CC(CC#N)(n2cc(C(N)=O)c(Nc3ccccc3)n2)C1 [Example 34-37, 1-[3-(cyanomethyl)-1-(2,2-dimethylpropanoyl)azetidin-3-yl]-3-(phenylamino)-1H-pyrazole-4-carboxamide] |
| 0.9 nM | 42 nM | N#CCC1(n2cc(C(N)=O)c(Nc3ccnc(F)c3)n2)CCN(C(=O)CC2CCCO2)CC1 (stereo not drawn) [Example 34-39, 1-[4-(cyanomethyl)-1-(tetrahydrofuran-2-ylacetyl)piperidin-4-yl]-3-[(2-fluoropyridin-4-yl)amino]-1H-pyrazole-4-carboxamide] |
| 0.1 nM | 2 nM | CC(F)(F)C(=O)N1CCC(CC#N)(n2cc(C(N)=O)c(Nc3ccnc(F)c3)n2)CC1 [Example 34-40, 1-[4-(cyanomethyl)-1-(2,2-difluoropropanoyl)piperidin-4-yl]-3 [(2-fluoropyridin-4-yl)amino]-1H-pyrazole-4-carboxamide] |
| 3 nM | 48 nM | CC(CF)(CF)C(=O)N1CCC(CC#N)(n2cc(C(N)=O)c(Nc3ccnc(F)c3)n2)CC1 [Example 34-41, 1-{4-(cyanomethyl)-1-[3-fluoro-2-(fluoromethyl)-2-methylpropanoyl]piperidin-4-yl}-3-[(2-fluoropyridin-4-yl)amino]-1H-pyrazole-4-carboxamide] |
| 3 nM | 96 nM | COCC(=O)N1CCC(CC#N)(n2cc(C(N)=O)c(Nc3ccnc(F)c3)n2)CC1 [Example 34-42, 1-[4-(cyanomethyl)-1-(methoxyacetyl)piperidin-4-yl]-3-[(2-fluoropyridin-4-yl)amino]-1H-pyrazole-4-carboxamide] |
| 11 nM | 234 nM | CC(C)(O)C(=O)N1CCC(CC#N)(n2cc(C(N)=O)c(Nc3ccnc(F)c3)n2)CC1 [Example 34-43, 1-[4-(cyanomethyl)-1-(2-hydroxy-2-methylpropanoyl)piperidin-4-yl]-3-[(2-fluoropyridin-4-yl)amino]-1H-pyrazole-4-carboxamide] |
| 2 nM | 63 nM | Cn1cc(C(=O)N2CCC(CC#N)(n3cc(C(N)=O)c(Nc4ccnc(F)c4)n3)CC2)cn1 [Example 34-44, 1-{4-(cyanomethyl)-1-[(1-methyl-1H-pyrazol-4-yl)carbonyl]piperidin-4-yl}-3-[(2-fluoropyridin-4-yl)amino]-1H-pyrazole-4-carboxamide] |

— patent US9328099B2, “Cyanomethylpyrazole carboxamides as janus kinase inhibitors” (Merck Sharp & Dohme Corp., priority 2011, dated 2016)
